ChEMBL document CHEMBL1156494, “Stelliferin riboside, a triterpene monosaccharide isolated from the Fijian sponge Geodia globostellifera” (J Nat Prod, 2001)
≈ marks a conversion by molar mass, not a printed value.

Experiments:
[1] = system: A2780; experiment: Cytotoxicity against human A2780 cells; assay type: functional, cell-based
[2] = system: K562; experiment: Cytotoxicity against human K562 cells; assay type: functional, cell-based

For `C\C(=C/C=C/C(C)=C1/C(=O)C[C@H]2[C@@]3(C)CCC(=O)C(C)(C)[C@@H]3CC[C@]12C)c1ccc(C)c(=O)o1` [STELLETIN A], the IC50 [1] was 1.52 mg/L (≈ 3.29 µM) and the IC50 [2] was 3.82 mg/L (≈ 8.26 µM).
`CC(/C=C/C=C(\C)c1ccc(C)c(=O)o1)=C1/C(=O)C[C@H]2[C@@]3(C)CCC(=O)C(C)(C)[C@@H]3CC[C@]12C` [STELLETTIN B] gave an IC50 [1] of 0.0051 mg/L (≈ 0.011 µM) and an IC50 [2] of 0.93 mg/L (≈ 2.01 µM).
Compound `CC(=O)O[C@@H]1CC[C@@]2(C)[C@@H](CC[C@]3(C)/C(=C(C)/C=C/C=C(\C)C(CC=C(C)C)O[C@@H]4OC[C@@H](O)[C@@H](O)[C@H]4O)C(=O)C[C@@H]23)C1(C)C` (stereo partly specified) [STELLIFERIN RIBOSIDE] has an IC50 [1] of 38.1 mg/L (≈ 60.6 µM) and an IC50 [2] of over 50 mg/L.
